Patent publication US20260365671A1, “HETEROCYCLIC COMPOUND” (Takeda Pharmaceutical Company Limited, priority 2022, published 2026)

Legend:
NF-κB pathway = assay: TNF-α assay (THP-1 cells differentiated to macrophages with IFN-γ, NF-κB pathway activated with LPS; ELISA); type: cell-based, Human; conditions: compound 30 min, 50 ng/mL LPS 3 hours
Procedure: (§1) The biological activity of Compound (I) with respect to NLRP3 was determined using the following in vitro methods.
TNF-α Assay (Reported as IC50)
Monocytic THP-1 cells (ATCC: TIB-202) were maintained in accordance with the provider's instructions in RPMI media (Life Technologies, Cat #A10491-01); RPMI was supplemented with 10% heat inactivated fetal bovine serum (Hyclone Cat #SH30396.03). The cells were differentiated into macrophages by the addition of 25 ng/mL IFN-γ for 24 hours at 37 °C/5% CO2. Media was exchanged with fresh media with no FBS. The cells were plated at 40,000 cells per well in 384-well flat-bottom cell culture plates (Costar 3764) containing compounds (added in 1:1000) in a 1:3.16 serial dilution series in DMSO and were incubated for 30 minutes at 37 °C/5% CO2. The NF-κB pathway was activated with the addition of 50 ng/mL LPS and the cells were incubated for 3 hours at 37 °C/5% CO2. At the end of the incubation period, supernatant ([…]) was removed, and […] were monitored using an ELISA (Human TNF-α ELISA, R&D systems, Cat #DY210) according to the manufacturer's instructions.
(§2) The IC50 values were calculated from a plot of percentage of inhibition versus the inhibitor concentration by a logistics curve fit according to: Y=[Bottom+(Top−Bottom)]/(1+10^[(Log IC50−X)·Hill Slope], where Y is the % inhibition at the inhibitor concentration, X, “Bottom” is the lowest inhibition value, i.e., 0%, “Top” is the maximum inhibition value, i.e., 100%, and the “Hill Slope” describes the slope of the sigmoidal curve between the “Bottom” and “Top” values. The curve fitting was conducted with XLfit (ver. 5.5.0.5, ID Business Solutions Limited) or internally developed software.
(§3) Table 2 lists in vitro biological assay data (IL-1β and TNF-α) for the compounds shown in the examples. These assays are described in the section entitled Biological Activity, above.

NLRP3 inflammasome = target: T1, NLRP3 inflammasome (Homo sapiens, UniProt Q96P20); assay: IL-1β TR-FRET assay (THP-1 cells differentiated to macrophages with IFN-γ, LPS primed, ATP activated; HTRF); type: cell-based; conditions: THP-1 macrophages, 50 ng/mL LPS priming, compound 30 min, 20 mM ATP 2 hours
T1 construct: IL-1beta HTRF
Procedure: as §1
IL-1β TR-FRET Assay (Reported as IC50)
Monocytic THP-1 cells (ATCC: TIB-202) were maintained in accordance with the provider's instructions in RPMI media (Life Technologies, Cat #A10491-01); RPMI was supplemented with 10% heat inactivated fetal bovine serum (Corning, Cat #35-010-CV). The cells were differentiated into macrophages by the addition of 25 ng/mL IFN-γ (PeproTech, Cat #AF300-02-100UG) for 24 hours at 37 °C/5% CO2. Media was exchanged with fresh media with no FBS, and the cells were treated with 50 ng/mL LPS (priming step) (LPS-EK: Invivogen, Cat #tlrl-peklps). The cells were plated at 240,000 cells per well in 384-well flat-bottom cell culture plates (FALCON, Cat #353962) and were incubated for 24 hours at 37 °C/5% CO2. Compounds were serially diluted (half log dilutions) with DMSO and were finally diluted with Media with no FBS. The compounds were added to the cells in 384-well plates (added in 1:3) and then the plates were incubated for 30 minutes at 37 °C/5% CO2. The NLRP3 inflammasome was activated with the addition of 20 mM ATP (Sigma Cat #A3377-25G) and the cells were incubated for 2 hours at 37 °C/5% CO2. At the end of the incubation period, 30 μL supernatant was transferred to another 384-well plate and mixed on a plate shaker for 1 minutes. The supernatant was mixed with HTRF Antibody (Human IL1 beta kit, Cisbio, 62HIL1BPEH) in assay plates (Greiner Bio-One, Cat #784075) and the assay plates were incubated in shading box at room temperature for 16-24 hours. HTRF signal was measured by EnVision (Perkinelmer) in accordance with the manufacturer's instructions.
as §2, §3

[1] = Homo sapiens, THP-1, THP-1 macrophages

T1 sequence (Q96P20 whole entry): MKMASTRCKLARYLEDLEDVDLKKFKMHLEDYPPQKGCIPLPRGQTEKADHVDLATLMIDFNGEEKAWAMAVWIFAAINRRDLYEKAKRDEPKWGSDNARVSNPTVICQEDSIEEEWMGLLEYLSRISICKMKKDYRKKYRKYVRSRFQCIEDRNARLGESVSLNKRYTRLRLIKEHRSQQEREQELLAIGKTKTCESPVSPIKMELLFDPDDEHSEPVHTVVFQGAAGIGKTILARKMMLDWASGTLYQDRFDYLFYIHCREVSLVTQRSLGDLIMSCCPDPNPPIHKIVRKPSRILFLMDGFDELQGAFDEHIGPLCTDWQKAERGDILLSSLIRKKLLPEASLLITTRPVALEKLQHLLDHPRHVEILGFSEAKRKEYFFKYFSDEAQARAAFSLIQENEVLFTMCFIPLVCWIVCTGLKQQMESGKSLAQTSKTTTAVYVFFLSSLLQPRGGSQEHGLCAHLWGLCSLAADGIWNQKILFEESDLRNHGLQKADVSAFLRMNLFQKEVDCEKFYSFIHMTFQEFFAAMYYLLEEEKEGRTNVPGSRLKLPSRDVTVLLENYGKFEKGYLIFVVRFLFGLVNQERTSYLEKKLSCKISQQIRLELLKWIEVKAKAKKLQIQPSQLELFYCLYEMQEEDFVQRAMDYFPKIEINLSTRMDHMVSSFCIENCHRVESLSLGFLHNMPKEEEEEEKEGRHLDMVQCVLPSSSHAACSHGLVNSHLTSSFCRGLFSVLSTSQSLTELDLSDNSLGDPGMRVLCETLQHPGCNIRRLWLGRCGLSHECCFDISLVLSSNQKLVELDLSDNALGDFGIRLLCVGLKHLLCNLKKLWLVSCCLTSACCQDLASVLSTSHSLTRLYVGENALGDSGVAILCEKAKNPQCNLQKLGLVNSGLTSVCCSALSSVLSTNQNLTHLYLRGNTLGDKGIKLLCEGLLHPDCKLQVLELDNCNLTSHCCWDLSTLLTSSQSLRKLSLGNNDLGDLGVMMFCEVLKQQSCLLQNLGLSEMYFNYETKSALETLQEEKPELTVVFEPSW

Row | Structure (SMILES) | IC50 (NF-κB pathway; [1]) | IC50 (NLRP3 inflammasome) | IC50 (NF-κB pathway; THP-1 macrophages)
1 | Cc1cc(O)c(-n2cc3sc(NC[C@@H](C)O)nc3n2)c(C2CC2)c1 [Example 64, 3-cyclopropyl-2-(5-{[(2R)-2-hydroxypropyl]amino}-2H-pyrazolo[3,4-d][1,3]thiazol-2-yl)-5-methylphenol] | > 10000 nM | 78 nM | –
2 | Cc1cc(Cl)cc(O)c1-n1cc2sc(N[C@@H]3C[C@@H](F)CN(C)C3)nc2n1 [Example 9, 5-chloro-2-(5-{[(3R,5R)-5-fluoro-1-methylpiperidin-3-yl]amino}-2H-pyrazolo[3,4-d][1,3]thiazol-2-yl)-3-methylphenol] | > 30000 nM | 14 nM | –
3 | Cc1cc(C)c(-n2cc3sc(N[C@@H]4CCCN(C5CCOC5)C4)nc3n2)c(O)c1 (single isomer, unassigned) [Example 72, 3,5-dimethyl-2-[5-({(3R)-1-[(S)-oxolan-3-yl]piperidin-3-yl}amino)-2H-pyrazolo[3,4-d][1,3]thiazol-2-yl]phenol or 3,5-dimethyl-2-[5-({(3R)-1-[(R)-oxolan-3-yl]piperidin-3-yl}amino)-2H-pyrazolo[3,4-d][1,3]thiazol-2-yl]phenol (tR2)] | – | 29 nM | > 30000 nM
4 | CN1C[C@H](F)C[C@@H](Nc2nc3nn(-c4c(O)cccc4Cl)cc3s2)C1 [Example 8, 3-chloro-2-(5-{[(3R,5R)-5-fluoro-1-methylpiperidin-3-yl]amino}-2H-pyrazolo[3,4-d][1,3]thiazol-2-yl)phenol] | > 30000 nM | 290 nM | –
5 | Cc1cc(C)c(-n2cc3sc(N[C@@H]4CCCN(CCF)C4)nc3n2)c(O)c1 [Example 42, 2-(5-{[(3R)-1-(2-fluoroethyl)piperidin-3-yl]amino}-2H-pyrazolo[3,4-d][1,3]thiazol-2-yl)-3,5-dimethylphenol] | > 30000 nM | 14 nM | –
6 | Cc1cc(C)c(-n2cc3sc(N[C@@H]4C[C@@H](F)CN(C5CCOC5)C4)nc3n2)c(O)c1 (single isomer, unassigned) [Example 73, 2-[5-({(3R,5R)-5-fluoro-1-[(S)-oxolan-3-yl]piperidin-3-yl}amino)-2H-pyrazolo[3,4-d][1,3]thiazol-2-yl]-3,5-dimethylphenol or 2-[5-({(3R,5R)-5-fluoro-1-[(R)-oxolan-3-yl]piperidin-3-yl}amino)-2H-pyrazolo[3,4-d][1,3]thiazol-2-yl]-3,5-dimethylphenol (tR1)] | > 30000 nM | 860 nM | –
7 | COCC(=O)N1CCC(Nc2nc3nn(-c4c(C)cc(C)cc4O)cc3s2)C1 (stereo not drawn) [Example 89, 1-(3-{[2-(2-hydroxy-4,6-dimethylphenyl)-2H-pyrazolo[3,4-d][1,3]thiazol-5-yl]amino}pyrrolidin-1-yl)-2-methoxyethan-1-one] | – | 550 nM | > 30000 nM
8 | Cc1cc(C)c(-n2cc3sc(NC4CCN(C(=O)OCc5ccccc5)C4)nc3n2)c(O)c1 (stereo not drawn) [Example 77, benzyl 3-{[2-(2-hydroxy-4,6-dimethylphenyl)-2H-pyrazolo[3,4-d][1,3]thiazol-5-yl]amino}pyrrolidine-1-carboxylate] | > 10000 nM | 470 nM | –
9 | Cc1cc(C)c(-n2cc3sc(NC4CCCC4O)nc3n2)c(O)c1 (stereo not drawn) [Example 28, 2-{5-[(2-hydroxycyclopentyl)amino]-2H-pyrazolo[3,4-d][1,3]thiazol-2-yl}-3,5-dimethylphenol] | > 10000 nM | 480 nM | –
10 | COCCN1CCC[C@@H](Nc2nc3nn(-c4c(C)cc(C)cc4O)cc3s2)C1 [Example 36, 2-(5-{[(3R)-1-(2-methoxyethyl)piperidin-3-yl]amino}-2H-pyrazolo[3,4-d][1,3]thiazol-2-yl)-3,5-dimethylphenol] | > 30000 nM | 34 nM | –
11 | Cc1cc(C)c(-n2cc3sc(N[C@@H]4CC[C@H](O)C4)nc3n2)c(O)c1 [Example 46, 2-(5-{[(1R,3S)-3-hydroxycyclopentyl]amino}-2H-pyrazolo[3,4-d][1,3]thiazol-2-yl)-3,5-dimethylphenol or 2-(5-{[(1S,3R)-3-hydroxycyclopentyl]amino}-2H-pyrazolo[3,4-d][1,3]thiazol-2-yl)-3,5-dimethylphenyl (tR1)] | > 10000 nM | 330 nM | –

Second part, the compound after the results:

Row | IC50 (NF-κB pathway; [1]) | IC50 (NLRP3 inflammasome) | IC50 (NF-κB pathway; THP-1 macrophages) | Structure (SMILES)
12 | > 10000 nM | 1000 nM | – | COC(C)(C)CNc1nc2nn(-c3c(C)cc(C)cc3O)cc2s1 [Example 114, 2-{5-[(2-methoxy-2-methylpropyl)amino]-2H-pyrazolo[3,4-d][1,3]thiazol-2-yl}-3,5-dimethylphenol]
13 | > 10000 nM | 6800 nM | – | Cc1cc(C)c(-n2cc3sc(NC4C5CC6CC4CC(O)(C6)C5)nc3n2)c(O)c1 (stereo not drawn) [Example 151, 4-{[2-(2-hydroxy-4,6-dimethylphenyl)-2H-pyrazolo[3,4-d][1,3]thiazol-5-yl]amino} adamantan-1-ol]
14 | > 30000 nM | 780 nM | – | Cc1cc(C)c(-n2cc3sc(NC4CCCN(C)C4=O)nc3n2)c(O)c1 (stereo not drawn) [Example 118, 3-{[2-(2-hydroxy-4,6-dimethylphenyl)-2H-pyrazolo[3,4-d][1,3]thiazol-5-yl]amino}-1-methylpiperidin-2-one]
15 | > 30000 nM | 16000 nM | – | Cc1cc(C)c(-n2cc3sc(NCC4(O)COC4)nc3n2)c(O)c1 [Example 161, 3-({[2-(2-hydroxy-4,6-dimethylphenyl)-2H-pyrazolo [3,4-d][1,3]thiazol-5-yl]amino}methyl)oxetan-3-ol]
16 | > 30000 nM | 280 nM | – | Cc1cc(O)c(-n2cc3sc(NC[C@@H](C)O)nc3n2)c(C(C)C)c1 [Example 93, 2-(5-{[(2R)-2-hydroxypropyl]amino}-2H-pyrazolo[3,4-d][1,3]thiazol-2-yl)5-methyl-3-(propan-2-yl)phenol]
17 | > 30000 nM | 1000 nM | – | CCC(=O)N1CCC(Nc2nc3nn(-c4c(C)cc(C)cc4O)cc3s2)CC1 [Example 132, 1-(4-{[2-(2-hydroxy-4,6-dimethylphenyl)-2H-pyrazolo[3,4-d][1,3]thiazol-5-yl]amino}piperidin-1-yl)propan-1-one]
18 | > 30000 nM | 1100 nM | – | COC(=O)N1CCC(Nc2nc3nn(-c4c(C)cc(C)cc4O)cc3s2)CC1 [Example 130, methyl 4-{[2-(2-hydroxy-4,6-dimethylphenyl)-2H-pyrazolo[3,4-d][1,3]thiazol-5-yl]amino}piperidine-1-carboxylate]
19 | > 30000 nM | 3.8 nM | – | Cc1cc(O)c(-n2cc3sc(N[C@@H]4C[C@@H](F)CN(C)C4)nc3n2)c(C2CC2(F)F)c1 (single isomer, unassigned) [Example 126, 3-[(R)-2,2-difluorocyclopropyl]-2-(5-{[(3R,5R)-5-fluoro-1-methylpiperidin-3-yl]amino}-2H-pyrazolo[3,4-d][1,3]thiazol-2-yl)-5-methylphenol or 3-[(S)-2,2-difluorocyclopropyl]-2-(5-{[(3R,5R)-5-fluoro-1-methylpiperidin-3-yl]amino}-2H-pyrazolo[3,4-d][1,3]thiazol-2-yl)-5-methylphenol (tR2)]
20 | > 30000 nM | 880 nM | – | CC(=O)N1CCC(Nc2nc3nn(-c4c(C)cc(C)cc4O)cc3s2)CC1 [Example 133, 1-(4-{[2-(2-hydroxy-4,6-dimethylphenyl)-2H-pyrazolo[3,4-d][1,3]thiazol-5-yl]amino}piperidin-1-yl)ethan-1-one]
21 | > 30000 nM | 75 nM | – | Cc1cc(OC(F)F)cc(O)c1-n1cc2sc(N[C@@H]3C[C@@H](F)CN(C)C3)nc2n1 [Example 107, 5-(difluoromethoxy)-2-(5-{[(3R,5R)-5-fluoro-1-methylpiperidin-3-yl]amino}-2H-pyrazolo[3,4-d][1,3]thiazol-2-yl)-3-methylphenol]
